From patent publication US10316017B2, “COT modulators and methods of use thereof” (Gilead Sciences, Inc., priority 2015, dated 2019)
Where two headings read alike, the source gives them in different places.

What was measured:
[1] = test system: TNFα production in LPS-stimulated human monocytes; test: Cot Monocyte TNFα Cell Based Assay; settings: read-out: EC50 TNF
Method in brief: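 Human monocytes (5,000 cells/well) pretreated with compound for 1 hour at 37° C (0.5% DMSO), then stimulated with 50 pg/ml LPS for 4 hours. Total TNFα measured by TR-FRET after overnight antibody incubation at room temp, expressed as percent of control between unstimulated and stimulated cells.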

[2] = biological target: T1, human Cot catalytic domain (30-397 amino acids) (Homo sapiens, UniProt P41279); test: High Throughput Cot Biochemical Assay (KinEASE TR-FRET); settings: Cot biochemical HTRF (KinEASE TR-FRET) assay; read-out: IC50 HTRF
T1 construct: Purified recombinant human Cot catalytic domain (30-397 amino acids) was purchased from Cama Biosciences; purchased Cama Biosciences (so in the source)
Method in brief: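 Recombinant human Cot catalytic domain (aa 30-397), 5 nM, with 1 μM STK3 peptide and 400 μM ATP in MOPS pH 7.0 buffer with MgOAc, DTT, BSA, NP-40, glycerol, 0.1% DMSO. Phosphorylated XL665-peptide detected by Eu-[…] antibody TR-FRET.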

[3] = Homo sapiens, Monocyte, TNFα in LPS-stimulated human monocytes
[4] = TNFα in LPS-stimulated human monocytes

T1 sequence (P41279 30-397): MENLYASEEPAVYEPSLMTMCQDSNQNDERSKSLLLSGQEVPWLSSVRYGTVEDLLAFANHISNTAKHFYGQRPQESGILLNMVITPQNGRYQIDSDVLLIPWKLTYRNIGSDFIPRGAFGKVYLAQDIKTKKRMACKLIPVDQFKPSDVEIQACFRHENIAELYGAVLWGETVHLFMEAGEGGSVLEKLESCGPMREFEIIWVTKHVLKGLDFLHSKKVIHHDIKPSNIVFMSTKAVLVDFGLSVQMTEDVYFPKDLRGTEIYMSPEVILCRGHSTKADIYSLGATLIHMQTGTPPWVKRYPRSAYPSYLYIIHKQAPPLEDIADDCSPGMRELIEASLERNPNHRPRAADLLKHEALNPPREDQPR

## N#Cc1ccc([C@H](Nc2cc(Cl)c3ncc(C#N)c(Nc4cnc(F)c(F)c4)c3c2)c2c[nH]nn2)cc1 [Example 423, (S)-8-chloro-6-(((4-cyanophenyl)(1H-1,2,3-triazol-4-yl)methyl)amino)-4-((5,6-difluoropyridin-3-yl)amino)quinoline-3-carbonitrile]
[1]; [3]
  EC50: 1260 nM
[2]
  IC50: 17 nM

## N#Cc1cccc([C@H](Nc2cc(Cl)c3ncc(C#N)c(Nc4cnc(F)c(F)c4)c3c2)c2c[nH]nn2)c1 [Example 424, (S)-8-chloro-6-(((3-cyanophenyl)(1H-1,2,3-triazol-4-yl)methyl)amino)-4-((5,6-difluoropyridin-3-yl)amino)quinoline-3-carbonitrile]
[1]; [3]
  EC50: 415 nM
[2]
  IC50: 6 nM

## N#Cc1cnc2c(Cl)cc(N[C@@H](c3ccc(F)cc3)c3c[nH]nn3)cc2c1Nc1cnc(F)c(Cl)c1 [Example 425, (S)-8-chloro-4-((5-chloro-6-fluoropyridin-3-yl)amino)-6-(((4-fluorophenyl)(1H-1,2,3-triazol-4-yl)methyl)amino)quinoline-3-carbonitrile]
[1]; [3]
  EC50: 438 nM
[2]
  IC50: 10 nM

## CC[C@@H](Nc1c(C#N)cnc2c(Cl)cc(N[C@H](c3cnn(C(F)F)n3)c3cccc(F)c3F)cc12)c1ccccc1 [Example 426, 8-chloro-6-(((S)-(2-(difluoromethyl)-2H-1,2,3-triazol-4-yl)(2,3-difluorophenyl)methyl)amino)-4-(((R)-1-phenylpropyl)amino) quinoline-3-carbonitrile]
[1]; [3]
  EC50: > 10000 nM
[2]
  IC50: 3150 nM

## CC[C@@H](Nc1c(C#N)cnc2c(Cl)cc(N[C@@H](c3cccc(F)c3F)c3cnnn3C(F)F)cc12)c1ccccc1 [Example 427, 8-chloro-6-(((S)-(1-(difluoromethyl)-1H-1,2,3-triazol-5-yl)(2,3-difluorophenyl)methyl)amino)-4-(((R)-1-phenylpropyl)amino) quinoline-3-carbonitrile]
[1]; [3]
  EC50: 8880 nM
[2]
  IC50: 316 nM

## CC[C@@H](Nc1c(C#N)cnc2c(Cl)cc(N[C@H](c3cn(C(F)F)nn3)c3cccc(F)c3F)cc12)c1ccccc1 [Example 428, 8-chloro-6-(((S)-(1-(difluoromethyl)-1H-1,2,3-triazol-4-yl)(2,3-difluorophenyl)methyl)amino)-4-(((R)-1-phenylpropyl)amino) quinoline-3-carbonitrile]
[1]; [3]
  EC50: 1830 nM
[2]
  IC50: 87 nM

## CC[C@@H](Nc1c(C#N)cnc2c(Cl)cc(N[C@H](c3cn(C4CC4)nn3)c3ccccc3F)cc12)c1ccccc1 [Example 429, 8-chloro-6-(((S)-(1-cyclopropyl-1H-1,2,3-triazol-4-yl)(2-fluorophenyl)methyl)amino)-4-(((R)-1-phenylpropyl)amino)quinoline-3-carbonitrile]
[1]; [3]
  EC50: 257 nM
[2]
  IC50: 9 nM

## N#Cc1cnc2c(Cl)cc(N[C@H](c3cn(C4CC4)nn3)c3ccccc3F)cc2c1Nc1cnc(F)c(F)c1 [Example 430, (S)-8-chloro-6-(((1-cyclopropyl-1H-1,2,3-triazol-4-yl)(2-fluorophenyl)methyl)amino)-4-((5,6-difluoropyridin-3-yl)amino)quinoline-3-carbonitrile]
[1]; [3]
  EC50: 679 nM
[2]
  IC50: 7 nM

## C[Si](C)(C)Cn1cc([C@@H](Nc2cc(Cl)c3ncc(C#N)c(Nc4cnc(F)c(F)c4)c3c2)c2ccccc2F)nn1 [Example 431, (S)-8-chloro-4-((5,6-difluoropyridin-3-yl)amino)-6-(((2-fluorophenyl)(1-((trimethylsilyl)methyl)-1H-1,2,3-triazol-4-yl)methyl)amino)quinoline-3-carbonitrile]
[1]; Homo sapiens, Monocyte
  EC50: 3280 nM
[2]
  IC50: 96 nM

## N#Cc1cnc2c(Cl)cc(N[C@@H](c3ccc(F)cc3)c3c[nH]nn3)cc2c1N[C@@H](CCO)c1ccccc1 [Example 432, 8-chloro-6-(((S)-(4-fluorophenyl)(1H-1,2,3-triazol-4-yl)methyl)amino)-4-(((S)-3-hydroxy-1-phenylpropyl)amino)quinoline-3-carbonitrile]
[1]; [3]
  EC50: 3930 nM
[2]
  IC50: 624 nM

## N#Cc1cnc2c(Cl)cc(N[C@@H](c3ccc(F)cc3)c3c[nH]nn3)cc2c1N[C@H](CO)c1ccccc1 [Example 433, 8-chloro-6-(((S)-(4-fluorophenyl)(1H-1,2,3-triazol-4-yl)methyl)amino)-4-(((S)-2-hydroxy-1-phenylethyl)amino)quinoline-3-carbonitrile]
[1]; [3]
  EC50: 1380 nM
[2]
  IC50: 31 nM

## CC[C@@H](Nc1c(C#N)cnc2c(Cl)cc(NC(c3ccc(F)cc3)c3nn[nH]c3OC)cc12)c1ccccc1 (stereo partly drawn) [Example 434, 8-chloro-6-(((4-fluorophenyl)(5-methoxy-1H-1,2,3-triazol-4-yl)methyl)amino)-4-(((R)-1-phenylpropyl)amino)quinoline-3-carbonitrile]
[1]; [3]
  EC50: 2380 nM
[2]
  IC50: 2760 nM

## COc1[nH]nnc1C(Nc1cc(Cl)c2ncc(C#N)c(Nc3cnc(F)c(F)c3)c2c1)c1ccc(F)cc1 (stereo not drawn) [Example 435, 8-chloro-4-((5,6-difluoropyridin-3-yl)amino)-6-(((4-fluorophenyl)(5-methoxy-1H-1,2,3-triazol-4-yl)methyl)amino)quinoline-3-carbonitrile]
[1]; [3]
  EC50: > 10000 nM
[2]
  IC50: 7930 nM

## N#Cc1cnc2c(Cl)cc(N[C@@H](c3ccc(F)cc3)c3c[nH]nn3)cc2c1NCC1CCCCO1 (stereo partly drawn) [Example 436, 8-chloro-6-(((S)-(4-fluorophenyl)(1H-1,2,3-triazol-4-yl)methyl)amino)-4-(((tetrahydro-2H-pyran-2-yl)methyl)amino)quinoline-3-carbonitrile]
[1]; [3]
  EC50: 3030 nM
[2]
  IC50: 1360 nM

## CC(C)(C)N1CCC(n2cc([C@@H](Nc3cc(Cl)c4ncc(C#N)c(NCC5CCCCO5)c4c3)c3ccc(F)cc3)nn2)CC1 (stereo partly drawn) [Example 437, 6-(((S)-(1-(1-(tert-butyl)piperidin-4-yl)-1H-1,2,3-triazol-4-yl)(4-fluorophenyl)methyl)amino)-8-chloro-4-(((tetrahydro-2H-pyran-2-yl)methyl)amino)quinoline-3-carbonitrile]
[1]; [3]
  EC50: 3910 nM
[2]
  IC50: 448 nM

## N#Cc1cnc2c(Cl)cc(N[C@@H](c3ccc(F)cc3)c3c[nH]nn3)cc2c1NC1CCCC(O)C1 (stereo partly drawn) [Example 438, 8-chloro-6-(((S)-(4-fluorophenyl)(1H-1,2,3-triazol-4-yl)methyl)amino)-4-((3-hydroxycyclohexyl)amino) quinoline-3-carbonitrile]
[1]; [3]
  EC50: 5130 nM
[2]
  IC50: 135 nM

## N#Cc1cnc2c(Cl)cc(N[C@@H](c3ccc(F)cc3)c3c[nH]nn3)cc2c1NC1CCCC(O)C1 (stereo partly drawn) [Example 439, 8-chloro-6-(((S)-(4-fluorophenyl)(1H-1,2,3-triazol-4-yl)methyl)amino)-4-((3-hydroxycyclohexyl)amino) quinoline-3-carbonitrile]
[1]; [4]
  EC50: > 10000 nM
[2]
  IC50: 2960 nM

## CC(C)(C)N1CCC(n2cc([C@@H](Nc3cc(Cl)c4ncc(C#N)c(NC5CCCC(O)C5)c4c3)c3ccc(F)cc3)nn2)CC1 (stereo partly drawn) [Example 440, 6-(((S)-(1-(1-(tert-butyl)piperidin-4-yl)-1H-1,2,3-triazol-4-yl)(4-fluorophenyl)methyl)amino)-8-chloro-4-((3-hydroxycyclohexyl)amino) quinoline-3-carbonitrile]
[1]; [4]
  EC50: 371 nM
[2]
  IC50: 46 nM

## CC(C)(C)N1CCC(n2cc([C@@H](Nc3cc(Cl)c4ncc(C#N)c(NC5CCCC(O)C5)c4c3)c3ccc(F)cc3)nn2)CC1 (stereo partly drawn) [Example 441, 6-(((S)-(1-(1-(tert-butyl)piperidin-4-yl)-1H-1,2,3-triazol-4-yl)(4-fluorophenyl)methyl)amino)-8-chloro-4-((3-hydroxycyclohexyl)amino) quinoline-3-carbonitrile]
[1]; [4]
  EC50: 5820 nM
[2]
  IC50: 804 nM

## COc1ccccc1CNc1c(C#N)cnc2c(Cl)cc(N[C@@H](c3ccc(F)cc3)c3cn(C4CCN(C(C)(C)C)CC4)nn3)cc12 [Example 442, (S)-6-(((1-(1-(tert-butyl)piperidin-4-yl)-1H-1,2,3-triazol-4-yl)(4-fluorophenyl)methyl)amino)-8-chloro-4-((2-methoxybenzyl)amino) quinoline-3-carbonitrile]
[1]; [3]
  EC50: 4900 nM
[2]
  IC50: 193 nM

## N#Cc1cnc2c(Cl)cc(N[C@@H](c3ccc(F)cc3)c3c[nH]nn3)cc2c1NCC(F)(F)F [Example 443, (S)-8-chloro-6-(((4-fluorophenyl)(1H-1,2,3-triazol-4-yl)methyl)amino)-4-((2,2,2-trifluoroethyl)amino) quinoline-3-carbonitrile]
[1]; [3]
  EC50: > 10000 nM
[2]
  IC50: 2700 nM

## CC[C@@H](Nc1c(C#N)cnc2c(Cl)cc(N[C@H](c3c[nH]nn3)c3ccccc3F)cc12)c1ccccc1 [Example 444, 8-chloro-6-(((S)-(2-fluorophenyl)(1H-1,2,3-triazol-4-yl)methyl)amino)-4-(((R)-1 phenylpropyl)amino) quinoline-3-carbonitrile]
[1]; [3]
  EC50: 855 nM
[2]
  IC50: 28 nM

## CC[C@@H](Nc1c(C#N)cnc2c(Cl)cc(N[C@H](c3c[nH]nn3)c3cccc(F)c3F)cc12)c1ccccc1 [Example 445, 8-chloro-6-(((S)-(2,3-difluorophenyl)(1H-1,2,3-triazol-4-yl)methyl)amino)-4-(((R)-1-phenylpropyl)amino) quinoline-3-carbonitrile]
[1]; [3]
  EC50: 1270 nM
[2]
  IC50: 46 nM

## CC[C@@H](Nc1c(C#N)cnc2c(Cl)cc(N[C@H](c3cn(CCF)nn3)c3ccccc3F)cc12)c1ccccc1 [Example 446, 8-chloro-6-(((S)-(1-(2-fluoroethyl)-1H-1,2,3-triazol-4-yl)(2-fluorophenyl)methyl)amino)-4-(((R)-1-phenylpropyl)amino) quinoline-3-carbonitrile]
[1]; [3]
  EC50: 338 nM
[2]
  IC50: 11 nM
